Measurements published in PMC12221989, “One-carbon homologation of alkenes” (Nature, 2025).
pIC50, pKd: −log10 of the molar value.

Legend:
[1] = system: calcineurin in the presence of Cyclophilin A; assay: Calcineurin inhibition assay (phosphatase activity in the presence of Cyclophilin A); format: biochemical
Method: Calcineurin inhibition assay
Calcineurin inhibition assays were conducted by Eurofins Integrated Discovery UK Ltd (EID) to determine the effect of compounds on the activity of calcineurin in the presence of Cyclophilin A. Assays were performed in duplicate, with IC50 values calculated from mean […]
Compounds were diluted with and without immunophilin (CypA) in a 96-well plate. After addition of calcineurin/calmodulin complex, the plate was incubated at 30 °C for 10 minutes.
The addition of the RII phosphopeptide substrate initiated the reaction, and the plate was […]
The reaction was stopped by the addition of Malachite green reagent. The plate was incubated at room temperature to allow colour development (5 – 20 mins). After sufficient colour has developed, the absorbance is read at 620 nm. Blank subtracted absorbance readings are plotted against compound concentration to determine IC50 values or % inhibition at the top concentration.

Jurkat cells = assay: IL-2 release assay, Jurkat cells stimulated with anti-CD3/anti-CD28; format: cell-based, human; conditions: for IL-2 levels, Mean: mean of three replicates normalized to the vehicle control
Method: Interleukin-2 (IL-2) release assays were conducted by Eurofins Pan Labs to determine ability for the analogues to inhibit IL-2 secretion from Jurkat cells following stimulation with anti-CD3 and anti-CD28 for a period of 24 hours. Data shown are means of three replicates normalized to the vehicle control
1) Cryopreserved Jurkat cells were thawed and cultured according to established protocols for four days at 37°C, 5% CO2 prior to assay.
2) Jurkat cells were harvested and seeded into 96-well plates at a density of 2x10^5 cells/well with […]
penicillin/streptomycin, and 2 mM L-glutamine).
3) Cells were incubated at 37°C, 5% CO2 for 1 hour prior to the addition of test agents.
4) The test agents were serially diluted in DMSO to 1000X assay concentrations, then further diluted to 20X assay concentrations in culture medium. The reference inhibitor Cyclosporin A (Sigma Aldrich catalog #C1832) was diluted to 1000X assay concentrations in DMSO before dilution to 20X assay concentration in culture medium.
5) The test agents, reference inhibitor, and diluted vehicle controls were added to the cells in volumes of 10 μL in triplicate and incubated for 1 hour at 37°C, 5% CO2. […]
concentrations in culture medium. The corresponding isotype controls were diluted to 5X assay concentrations in culture medium.
7) Diluted anti-CD3/anti-CD28 was added to test agent and positive control wells in volumes of 40 μL according to the plate map. Isotype controls were added to the isotype control wells.
Culture medium was added to vehicle and unstimulated control wells. […]
assay volumes of 200 μL and control concentrations of 50 ng/mL cyclosporin A (reference inhibitor), 0.1% DMSO (vehicle), 15 μg/mL anti-CD3, and 15 μg/mL anti-CD28.
8) Cells were incubated for 24 hours at 37°C, 5% CO2.
9) At the end of the incubation period, plates were centrifuged at 200g for 10 minutes. Cell culture supernatants were collected and stored at -80°C until needed for analysis.
Data Analysis and Analyte Limits of Detection
IL-2 cytokine levels in cell culture supernatants were determined using Luminex methodology per the manufacturer’s protocol using the Human Cytokine/Chemokine/Growth Factor Panel A Kit from Millipore Sigma (catalog #HCYTA-60K) with standard ranges and limits of detection in Table S9. Levels of each cytokine were interpolated from standard curves using non-linear regression analysis in Belysa Software (Millipore Sigma). The raw data in the form of median fluorescence unit was interpolated into test concentrations (pg/mL). The interpolated data were then normalized to the vehicle control
Table S9. Analyte limit of detection
Analyte Lowest standard (pg/mL) Highest standard (pg/mL) Sensitivity (pg/mL) […]
Reported mean values (pg/mL) are from three biological replicates normalized to the vehicle […]
Fig. S5. IL-2 release by Jurkat cells following stimulation with anti-CD3/anti-CD28 and treatment with the indicated test agent for 24 hours. Error bars indicate the standard error of the […]

[2] = Reversed-phase HPLC retention as measure of lipophilicity; conditions: reversed-phase C18, Fig. S4-b; corroborates calculated lipophilicity
in vitro = conditions: human
Method: Metabolic stability assay
Hepatic microsomal stability assays were conducted by Charles River Laboratories. Assays were performed in duplicate.
The stability of the test compound (1 µM) was measured following incubation at 37 °C with […] (0.5 mg protein/mL) in the presence of the cofactor, NADPH.
Incubates were prepared in duplicate, with aliquots removed at 0, 5, 10, 20 and 40 minutes and reactions terminated, and the compound was extracted by the addition of solvent. The disappearance of the parent compound was be monitored by LC-MS/MS and the half-life determined over the time-course of incubation. The half-life value was used to calculate the in vitro intrinsic clearance expressed as µL/min/mg protein.
Table S11. Metabolic Stability Data
Half- Half- Half- Clint Clint Mean Clint
Compound Cofactor life life Life (uL/min/mg (uL/min/mg (uL/min/mg Species (min) (min) (min) protn) n=1 protn) n=2 protn) (results)

Human Cyclophilin A = Human Cyclophilin A (Homo sapiens, UniProt P62937); assay: PPIase TR-FRET competitive binding assay
Method: PPIase TR-FRET competitive binding assay
Cyclophilin A assays were conducted by Eurofins Integrated Discovery UK Ltd (EID) to determine the inhibitory activity of the analogues against the Human Cyclophilin A in a TR-FRET Competitive Binding assay. Assays were performed in duplicate, with Kd values calculated from mean averages. […]
binding to the CypA enzyme: the CypA enzyme, tagged with a polyhistidine sequence, forms a complex with an anti-6xHis antibody labelled with a fluorescent donor, F(d), and the enzyme […]
Compounds are diluted from DMSO stocks to 50-fold the final concentration and then in assay buffer to 2-fold the final assay plate concentration. An equal volume of compound is added to the master mix in the assay plate containing the enzyme/antibody/ligand complex, with a final concentration of detergent of 0.01%. This is incubated for 30 mins at room temperature and the plate read at 2 wavelengths (A and B) to detect emission from F(d) and F(a), respectively. The ratio B/A is calculated, blank subtracted and either expressed as a percentage of the ‘no inhibitor’ control or the blank subtracted values are plotted against the inhibitor concentration in Log10 Molar and fitted using one site Ki nonlinear regression to determine the Kd. Where possible, compound Kds are determined from duplicate data points. Each assay plate is set up with ‘no enzyme’ blanks and ‘no inhibitor’ controls, which are used to determine the Z’ value for each plate.

Chain of Human Cyclophilin A (P62937 whole entry): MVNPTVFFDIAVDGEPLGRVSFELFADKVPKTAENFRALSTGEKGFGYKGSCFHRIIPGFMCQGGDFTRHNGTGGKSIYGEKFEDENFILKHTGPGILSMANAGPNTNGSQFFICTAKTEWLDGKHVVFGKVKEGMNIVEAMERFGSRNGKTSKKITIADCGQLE

pIC50 ([1]; with CypA, calcineurin/calmodulin, RII phosphopeptide substrate, 30 °C 45 min, Malachite green A620, duplicate, IC50 from mean averages): 6.80
increase of HPLC retention time upon each homologation event [2]: ~ 2.5 minutes
Clint (uL/min/mg protn) n=1 (in vitro): 81 uL/min/mg protn
Clint (uL/min/mg protn) n=2 (in vitro): 78 uL/min/mg protn
Half-life (min) n=1 (in vitro): 17 min
Mean Clint (uL/min/mg protn) (in vitro): 79 uL/min/mg protn
pKd (Human Cyclophilin A): 7.63
Compound: C/C=C/CCC[C@@H](C)[C@@H](O)[C@H]1C(=O)N[C@@H](CC)C(=O)N(C)CC(=O)N(C)[C@@H](CC(C)C)C(=O)N[C@@H](C(C)C)C(=O)N(C)[C@@H](CC(C)C)C(=O)N[C@@H](C)C(=O)N[C@H](C)C(=O)N(C)[C@@H](CC(C)C)C(=O)N(C)[C@@H](CC(C)C)C(=O)N(C)[C@@H](C(C)C)C(=O)N1C [compound 22, E-bishomo Cyclosporine-A]
calcineurin inhibition compared with cyclosporine A (in words) ([1]; in vitro calcineurin phosphatase activity assay): retained comparable potency to cyclosporine A
suppression of IL-2 secretion (in words) (Jurkat cells; at high concentrations (≥1 µM), Jurkat T cells): effectively suppressed IL-2 secretion
IL-2 levels, Mean (Jurkat cells; test agent 0.032 µM): 7.0 pg/mL
IL-2 levels, Mean (Jurkat cells; test agent 0.10 µM): 1.9 pg/mL
IL-2 levels, Mean (Jurkat cells; test agent 0.32 µM): 1.1 pg/mL
IL-2 levels, Mean (Jurkat cells; test agent 1.0 µM): 0.9 pg/mL
IL-2 levels, Mean (Jurkat cells; test agent 3.2 µM): 0.5 pg/mL
IL-2 levels, Mean (Jurkat cells; test agent 10 µM): 0.7 pg/mL
